# Measurements taken from patent US20100168112A1, “2-Substituted and 4-substituted aryl nitrone compounds” (RENOVIS, INC., priority 2004, published 2010).
# Assays:
# [1] = Plasma protein binding (equilibrium dialysis), human plasma; format: in vitro ADME; conditions: 1 μg/mL in plasma, dialysis vs phosphate buffer pH 7.4 overnight at 37° C., read-out: Plasma Protein Binding % Bound Human (converted)
# Experimental: (§1) Nitrone compounds of this invention were individually dissolved in DMSO to make a stock solution of 1 mg/mL. The compound was spiked into plasma to achieve a final concentration of 1 μg/mL. Spiked plasma and phosphate buffer (0.1M, pH 7.4), 200 μl each, were added to the opposite sides of the membrane in a 96-well equilibrium dialyzer. The dialyzer plate was then covered and equilibrated overnight at 37° C. on an orbital shaker. Aliquots were taken from the plasma and the buffer compartments and prepared by adding blank plasma to samples from the buffer compartments and drug-free phosphate buffer to samples from the plasma compartments to eliminate the matrix effects. The samples were extracted using protein precipitation procedure by adding CH3CN. The samples were analyzed using a LC/MS/MS method. The percentage of free and bound nitrone compound were calculated according to the following formula:
# (§2) %Free=[Free Drug/Total Drug]*100=[(Peak Area)buffer/(Peak Area)serum]*100%Bound=100%Free
# [2] = Plasma protein binding (equilibrium dialysis), rat plasma; format: in vitro ADME; conditions: 1 μg/mL in plasma, dialysis vs phosphate buffer pH 7.4 overnight at 37° C., read-out: Plasma Protein Binding % Bound Rat (converted)
# Experimental: as §1, §2
# [3] = DPPH free radical-scavenging/antioxidant assay; format: biochemical; conditions: 50 μM DPPH in 80% methanol; 24 h time point; read-out: EC50 (concentration at which a compound reduces by 50% the peak absorbance of DPPH at 520 nm)
# In short: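 Compounds diluted 100-fold from DMSO stocks into 50 μM DPPH in 80% methanol; absorbance at 520 nm followed kinetically to steady state, with the 24 h reading used. EC50 interpolated from OD520 versus concentration; Trolox, BHA, PBN and S-PBN as positive controls, DMSO as vehicle.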
Compound,fraction unbound at 1 μg/mL [1],fraction unbound at 1 μg/mL [2],EC50 [3] [µM]
"CC(C)(C)/[N+]([O-])=C/c1ccc(S(=O)(=O)Nc2cccnc2)cc1 [Compound 26, N-(tert-Butyl)-C-[4-(pyridin-3-ylsulfamoyl)phenyl]nitrone]",0.238,0.01,> 1000
"CC(C)(C)/[N+]([O-])=C/c1ccc(S(C)(=O)=O)cc1 [Compound 62, N-tert-Butyl-C-[4-(methanesulfonyl)phenyl]nitrone]",0.826,0.999,> 1000
"CC(C)(C)/[N+]([O-])=C/c1ccc(S(=O)(=O)N2CCOCC2)cc1 [Compound 23, N-(tert-Butyl)-C-[4-(morpholine-4-sulfonyl)phenyl]nitrone]",0.8,0.782,> 1000
"CC(C)(C)/[N+]([O-])=C/c1ccc(S(C)(=O)=O)cc1S(C)(=O)=O [Compound 63, N-tert-Butyl-C-(2,4-bis-methanesulfonylphenyl)nitrone]",0.867,0.741,500 to 1000

# Other lines, results leading:
fraction unbound at 1 μg/mL [1],fraction unbound at 1 μg/mL [2],EC50 [3] [µM],Compound
1,0.976,> 1000,"CC(C)(C)/[N+]([O-])=C/c1ccc(S(N)(=O)=O)cc1 [Compound 20, N-(tert-Butyl)-C-[4-(sulfamoyl)phenyl]nitrone]"
0.726,0.898,500 to 1000,"CC(C)(C)/[N+]([O-])=C/c1ccccc1S(C)(=O)=O [Compound 66, N-tert-Butyl-C-(2-methanesulfonylphenyl)nitrone]"
0.697,0.811,500 to 1000,"CCS(=O)(=O)c1ccc(/C=[N+](\[O-])C(C)(C)C)c(S(=O)(=O)CC)c1 [Compound 64, N-tert-Butyl-C-(2,4-bis-ethanesulfonylphenyl)nitrone]"
